Laboratory results: patent US10538520B2, “Benzamide and nicotinamide compounds and methods of using same” (OncoTartis Inc., priority 2013, dated 2020)

Tests used:
U-937 = test: Cytotoxicity towards U-937 cell line; format: cell-based; conditions: Homo sapiens
Method: (§1) In various embodiments, the compounds of the disclosure are those in which show IC50 values in cytotoxicity experiments towards cells lines MV4-11 and U937 of >20 μM, 10-20 μM, 5-10 μM, 1-5 μM, or <1 μM.
(§2) The IC50 is divided into 5 categories: A<1 μM, B 1-5 μM, C 5-10 μM, D 10-20 μM, and E>20 μM.

MV4-11 = test: Cytotoxicity towards MV4-11 cell line; format: cell-based; conditions: Homo sapiens
Method: as §1, §2

O=C(NCCCc1cn[nH]c1)c1ccc(N2CCOCC2)c(C#Cc2ccncc2)c1 [TT-03631]
IC50 (U-937): < 1 µM
IC50 (MV4-11): < 1 µM

Cc1nn(-c2ccc(C(=O)NCCc3cnccn3)cc2C#Cc2ccccc2)c(C)c1C [TT-02942]
IC50 (U-937): 5 to 10 µM
IC50 (MV4-11): > 20 µM

O=C(NCCn1cncn1)c1ccc(-n2cccn2)c(C#Cc2ccccc2)c1 [TT-02804]
IC50 (U-937): < 1 µM
IC50 (MV4-11): > 20 µM

CC(CNC(=O)c1ccc(-n2cccn2)c(C#Cc2ccccc2)c1)n1cncn1 (stereo not shown) [TT-02930]
IC50 (U-937): > 20 µM
IC50 (MV4-11): > 20 µM

O=C(NCCCn1ccnc1)c1cccc(Br)c1 [TT-03073]
IC50 (U-937): > 20 µM
IC50 (MV4-11): > 20 µM

O=C(NCCCc1cn[nH]c1)c1ccc(N2CCNCC2)c(C#Cc2ccc(F)cc2)c1 [TT-03597]
IC50 (U-937): < 1 µM
IC50 (MV4-11): < 1 µM

O=C(NCCCN1CCOCC1)c1ccc(-n2cccn2)c(C#Cc2cccnc2)c1 [TT-02936]
IC50 (U-937): > 20 µM
IC50 (MV4-11): > 20 µM

Cc1nccn1CCN(C)C(=O)c1ccc(-n2cccn2)c(C#Cc2ccccc2)c1 [TT-02797]
IC50 (U-937): > 20 µM
IC50 (MV4-11): > 20 µM

O=C(NCCCc1cn[nH]c1)c1ccc(-n2cccn2)c(C#Cc2ccncc2)c1 [TT-03304]
IC50 (U-937): < 1 µM
IC50 (MV4-11): < 1 µM

O=C(NCCCn1ccnc1)c1ccc(-n2cccn2)cc1 [TT-03071]
IC50 (U-937): 1 to 5 µM
IC50 (MV4-11): 1 to 5 µM

O=C(NCCCc1cn[nH]c1)c1ccc(-n2cccn2)c(C#Cc2ccc3nccn3c2)c1 [TT-03620]
IC50 (U-937): < 1 µM
IC50 (MV4-11): < 1 µM

O=C(NCCCn1ccnc1)c1ccc(N2CCCC2)c(C#Cc2ccccc2)c1 [TT-02683]
IC50 (U-937): < 1 µM
IC50 (MV4-11): < 1 µM

O=C(NCCCc1cn[nH]c1)c1ccc(N2CCC3(CCCCC3)C2)c(C#Cc2ccc(F)cc2)c1 [TT-03590]
IC50 (U-937): < 1 µM
IC50 (MV4-11): < 1 µM

CNC(=O)c1cccc(C#Cc2cc(C(=O)NCCCc3cn[nH]c3)ccc2-n2cccn2)c1 [TT-03359]
IC50 (U-937): < 1 µM
IC50 (MV4-11): < 1 µM

CN(C)c1ccc(C(=O)NCCCn2ccnc2)cc1C#Cc1ccccc1 [TT-03252]
IC50 (U-937): < 1 µM
IC50 (MV4-11): < 1 µM

O=C(NCCCc1cn[nH]c1)c1ccc(-n2cccn2)c(C#Cc2cccc(C(F)(F)F)c2)c1 [TT-03332]
IC50 (U-937): < 1 µM
IC50 (MV4-11): < 1 µM

COc1ccc(C#Cc2cc(C(=O)NCCCc3cn[nH]c3)ccc2-n2cccn2)cc1 [TT-03306]
IC50 (U-937): < 1 µM
IC50 (MV4-11): < 1 µM

O=C(NCCCn1ccnc1)c1ccc(-n2cccn2)c(C#Cc2ccc(C(F)(F)F)cc2)c1 [TT-02747]
IC50 (U-937): 5 to 10 µM
IC50 (MV4-11): 10 to 20 µM

Cn1cc(CCCNC(=O)c2ccc(-n3cccn3)c(C#Cc3ccc(F)cc3)c2)cn1 [TT-03630]
IC50 (U-937): < 1 µM
IC50 (MV4-11): < 1 µM

Cc1nccn1CCCNC(=O)c1ccc(-n2cccn2)c(C#Cc2ccccc2)c1 [TT-02689]
IC50 (U-937): 1 to 5 µM
IC50 (MV4-11): 1 to 5 µM

Cc1nccn1CCCNC(=O)c1ccc(N2CCN(CCOCCOCCOCCN)CC2)c(C#Cc2ccc(F)cc2)c1 [TT-03749]
IC50 (U-937): 10 to 20 µM
IC50 (MV4-11): 1 to 5 µM

O=C(NCCCc1cn[nH]c1)c1ccc(-n2cccn2)c(C#CC2(O)CCCCC2)c1 [TT-03351]
IC50 (U-937): 5 to 10 µM
IC50 (MV4-11): 5 to 10 µM

O=C(NCCc1nccs1)c1ccc(-n2cccn2)c(C#Cc2ccccc2)c1 [TT-02707]
IC50 (U-937): < 1 µM
IC50 (MV4-11): > 20 µM

O=C(NCCCc1cn[nH]c1)c1ccc(-c2cc[n+]([O-])cc2)c(C#Cc2ccc(F)cc2)c1 [TT-03773]
IC50 (U-937): < 1 µM
IC50 (MV4-11): < 1 µM

O=C(NCCn1ccnc1)c1ccc(-n2cccn2)c(C#Cc2ccccc2)c1 [TT-02694]
IC50 (U-937): < 1 µM
IC50 (MV4-11): > 20 µM

O=C(NCCCc1cn[nH]c1)c1cnc(N2CC[S+]([O-])CC2)c(C#Cc2ccc(F)cc2)c1 [TT-03782]
IC50 (U-937): < 1 µM
IC50 (MV4-11): < 1 µM

Cc1ccc(C(=O)NCCCn2ccnc2)cc1C#Cc1ccccc1 [TT-03196]
IC50 (U-937): < 1 µM
IC50 (MV4-11): < 1 µM

CC(C)(C)OC(=O)NCc1ccc(C#Cc2cc(C(=O)NCCCc3cn[nH]c3)ccc2-n2cccn2)cc1 [TT-03364]
IC50 (U-937): 1 to 5 µM
IC50 (MV4-11): 1 to 5 µM

Cc1cc(SCCNC(=O)c2ccc(-n3cccn3)c(C#Cc3ccccc3)c2)[nH]n1 [TT-02691]
IC50 (U-937): 5 to 10 µM
IC50 (MV4-11): 10 to 20 µM

O=C(NCCCc1cn[nH]c1)c1ccc(N2CCCCCC2)c(C#Cc2ccc(F)cc2)c1 [TT-03589]
IC50 (U-937): < 1 µM
IC50 (MV4-11): < 1 µM

Cc1ccc(C#Cc2cc(C(=O)NCCCn3ccnc3)ccc2-n2cccn2)cc1 [TT-02745]
IC50 (U-937): < 1 µM
IC50 (MV4-11): < 1 µM

O=C(NCCCn1ccnc1)c1ccc(-n2cccn2)c(C#Cc2ccncc2)c1 [TT-03305]
IC50 (U-937): < 1 µM
IC50 (MV4-11): < 1 µM

Cn1nnnc1SCCNC(=O)c1ccc(-n2cccn2)c(C#Cc2cccnc2)c1 [TT-02939]
IC50 (U-937): 5 to 10 µM
IC50 (MV4-11): > 20 µM

C#Cc1cc(C(=O)NCCCn2ccnc2)ccc1-n1cccn1 [TT-02752]
IC50 (U-937): 10 to 20 µM
IC50 (MV4-11): 5 to 10 µM

O=C(NCCc1c[nH]cn1)c1ccc(-n2cccn2)c(C#Cc2ccccc2)c1 [TT-02686]
IC50 (U-937): 10 to 20 µM
IC50 (MV4-11): 5 to 10 µM
